# Article doi:10.1101/2021.02.09.430557v1 (biorxiv, 2021)
# Target: T1, AnHSD (Paenarthrobacter nicotinovorans, UniProt A0ABT9TQY6)
# T1 sequence (A0ABT9TQY6 1-348): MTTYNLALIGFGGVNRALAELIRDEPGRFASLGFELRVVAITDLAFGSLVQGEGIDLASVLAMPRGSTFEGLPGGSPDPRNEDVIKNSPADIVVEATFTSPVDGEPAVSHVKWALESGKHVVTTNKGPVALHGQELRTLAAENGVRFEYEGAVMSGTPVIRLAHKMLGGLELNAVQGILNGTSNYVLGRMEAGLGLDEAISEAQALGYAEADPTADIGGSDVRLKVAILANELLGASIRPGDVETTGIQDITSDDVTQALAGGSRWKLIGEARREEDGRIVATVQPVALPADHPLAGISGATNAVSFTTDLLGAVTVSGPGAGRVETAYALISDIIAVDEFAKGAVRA
# Experiment: residual L-homoserine oxidation activity, absorbance at […] nm
# Type: biochemical
# Conditions: read-out: Relative activity (%) at 10 mM
smiles,measurement,value
N[C@@H](CC(=O)O)C(=O)O [L-aspartate],activity at 10000 µM,76.7 ± 1.53%
